Measurements from patent US10377753B2, “Substituted 4-azaindoles and their use as GluN2B receptor modulators” (Janssen Pharmaceutica NV, priority 2015, dated 2019).
pIC50: −log10 of the molar value. Where a name gives a salt, the structure may show the parent alone.

Molecular target: cloned human NR1/NR2B ion channels (Homo sapiens (Human), UniProt Q05586+Q13224)
Test: HNR2BC: effects of test articles on cloned human NR1/NR2B ion channels expressed in mammalian cells (FLIPR calcium flux)
Assay type: cell-based
Conditions: cloned human NR1/NR2B, Table 5
Outline: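 In a stable Tet-On-induced cell line expressing human GluN1/GluN2B, Calcium 5-loaded cells were preincubated 5 min with compound, then stimulated 5 min with glutamate at ~EC80 plus 10 μM glycine, in pH 7.4 HEPES buffer. FLIPR calcium fluorescence was normalized to control wells.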

Chain of cloned human NR1/NR2B ion channels (Q13224 27-1484, other chains not shown): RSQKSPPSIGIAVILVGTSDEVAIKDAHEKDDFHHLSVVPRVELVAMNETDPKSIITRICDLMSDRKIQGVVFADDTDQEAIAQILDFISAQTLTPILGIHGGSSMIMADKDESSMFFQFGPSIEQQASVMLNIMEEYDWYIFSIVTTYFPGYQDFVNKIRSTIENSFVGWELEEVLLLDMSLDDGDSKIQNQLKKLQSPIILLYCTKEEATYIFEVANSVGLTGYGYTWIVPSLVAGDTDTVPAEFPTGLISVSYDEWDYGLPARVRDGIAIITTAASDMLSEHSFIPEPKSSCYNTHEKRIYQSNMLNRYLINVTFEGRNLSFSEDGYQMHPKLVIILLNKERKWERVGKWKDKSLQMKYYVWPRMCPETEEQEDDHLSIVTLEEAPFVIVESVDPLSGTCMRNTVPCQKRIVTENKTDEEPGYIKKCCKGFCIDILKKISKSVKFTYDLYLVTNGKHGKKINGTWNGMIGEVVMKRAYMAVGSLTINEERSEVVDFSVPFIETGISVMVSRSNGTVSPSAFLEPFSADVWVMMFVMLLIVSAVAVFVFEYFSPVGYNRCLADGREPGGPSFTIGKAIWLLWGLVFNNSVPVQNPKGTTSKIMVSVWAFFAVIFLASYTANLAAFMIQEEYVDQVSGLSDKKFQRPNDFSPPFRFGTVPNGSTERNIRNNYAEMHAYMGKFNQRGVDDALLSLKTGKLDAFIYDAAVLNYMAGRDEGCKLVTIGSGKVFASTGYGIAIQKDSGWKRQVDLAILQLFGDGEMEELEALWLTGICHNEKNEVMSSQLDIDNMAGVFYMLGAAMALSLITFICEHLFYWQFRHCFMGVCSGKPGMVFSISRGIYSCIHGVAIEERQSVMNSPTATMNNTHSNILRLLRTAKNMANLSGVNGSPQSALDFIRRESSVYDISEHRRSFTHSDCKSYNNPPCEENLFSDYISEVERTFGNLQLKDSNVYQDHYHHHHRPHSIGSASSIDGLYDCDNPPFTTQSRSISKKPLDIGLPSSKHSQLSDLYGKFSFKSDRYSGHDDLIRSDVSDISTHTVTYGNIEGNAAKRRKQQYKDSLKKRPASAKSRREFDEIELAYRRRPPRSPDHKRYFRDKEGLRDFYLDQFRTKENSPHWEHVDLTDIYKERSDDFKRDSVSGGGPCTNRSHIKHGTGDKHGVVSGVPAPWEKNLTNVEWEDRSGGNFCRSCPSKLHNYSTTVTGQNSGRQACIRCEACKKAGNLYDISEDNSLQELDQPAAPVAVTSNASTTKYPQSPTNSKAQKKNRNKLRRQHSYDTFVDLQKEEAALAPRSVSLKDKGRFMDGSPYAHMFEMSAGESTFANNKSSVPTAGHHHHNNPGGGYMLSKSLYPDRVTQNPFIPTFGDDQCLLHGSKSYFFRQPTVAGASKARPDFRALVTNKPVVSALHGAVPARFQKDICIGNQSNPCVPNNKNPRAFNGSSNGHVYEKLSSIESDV

pIC50 | Compound
6.70 | Cc1ccc(-c2cnc3ccn(CC(=O)N4CCCC4)c3c2)s1 [Example 283, 2-[6-(5-Methyl-2-thienyl)pyrrolo[3,2-b]pyridin-1-yl]-1-pyrrolidin-1-yl-ethanone]
7.00 | CCc1ccc(-c2cnc3ccn(CC(=O)N4CC(F)(F)C4)c3c2)s1 [Example 284, 1-(3,3-Difluoroazetidin-1-yl)-2-[6-(5-ethyl-2-thienyl)pyrrolo[3,2-b]pyridin-1-yl]ethanone]
6.80 | O=C(Cn1ccc2ncc(-c3cc(Cl)cs3)cc21)N1CC(F)C1 [Example 285, 2-[6-(4-Chloro-2-thienyl)pyrrolo[3,2-b]pyridin-1-yl]-1-(3-fluoroazetidin-1-yl)ethanone]
6.80 | Cc1cc(-c2cnc3ccn(C/C(=N/O)C4CC4)c3c2)ccc1F [Example 286, 1-Cyclopropyl-2-[6-(4-fluoro-3-methyl-phenyl)pyrrolo[3,2-b]pyridin-1-yl]ethanone oxime trifluoroacetate salt]
6.20 | O=C(Cn1ccc2ncc(-c3ccc(Cl)s3)cc21)N1CCCC1 [Example 287, 2-[6-(5-Chloro-2-thienyl)pyrrolo[3,2-b]pyridin-1-yl]-1-pyrrolidin-1-yl-ethanone]
7.70 | O=C(Cn1ccc2ncc(-c3cc(Cl)cs3)cc21)N1CCCC1 [Example 288, 2-[6-(4-Chloro-2-thienyl)pyrrolo[3,2-b]pyridin-1-yl]-1-pyrrolidin-1-yl-ethanone]
6.20 | COC1CN(C(=O)Cn2ccc3ncc(-c4ccc(F)c(C)c4)cc32)C1 [Example 290, 2-[6-(4-Fluoro-3-methyl-phenyl)pyrrolo[3,2-b]pyridin-1-yl]-1-(3-methoxyazetidin-1-yl)ethanone]
7.10 | COCCn1ccc2ncc(-c3ccc(F)c(C)c3)cc21 [Example 291, 6-(4-Fluoro-3-methyl-phenyl)-1-(2-methoxyethyl)pyrrolo[3,2-b]pyridine trifluoroacetate salt]
5.90 | O=C(Cn1ccc2ncc(-c3cccc(F)c3)cc21)C1CCC1 [Example 292, 1-Cyclobutyl-2-[6-(3-fluorophenyl)pyrrolo[3,2-b]pyridin-1-yl]ethanone]
6.50 | O=C(Cn1ccc2ncc(-c3ccc(F)cc3)cc21)N1CC[C@H](F)C1 [Example 294, 2-[6-(4-Fluorophenyl)pyrrolo[3,2-b]pyridin-1-yl]-1-[(3S)-3-fluoropyrrolidin-1-yl]ethanone trifluoroacetate salt]
6.50 | CCC(=O)Cn1ccc2ncc(-c3ccc(F)c(C)c3)cc21 [Example 295, 1-[6-(4-Fluoro-3-methyl-phenyl)pyrrolo[3,2-b]pyridin-1-yl]butan-2-one trifluoroacetate salt]
7.60 | CCN(C)C(=O)Cn1ccc2ncc(-c3ccc(F)c(C)c3)cc21 [Example 296, N-Ethyl-2-[6-(4-fluoro-3-methyl-phenyl)pyrrolo[3,2-b]pyridin-1-yl]-N-methyl-acetamide]
7.40 | CCN(CC)C(=O)Cn1ccc2ncc(-c3ccc(F)c(C)c3)cc21 [Example 297, N,N-Diethyl-2-[6-(4-fluoro-3-methyl-phenyl)pyrrolo[3,2-b]pyridin-1-yl]acetamide]
6.30 | O=C(Cn1cc(Cl)c2ncc(-c3cccc(C(F)(F)F)c3)cc21)N1CCC1 [Example 298, 1-(Azetidin-1-yl)-2-[3-chloro-6-[3-(trifluoromethyl)phenyl]pyrrolo[3,2-b]pyridin-1-yl]ethanone]
7.30 | Cc1cccc(-c2cnc3c(Cl)cn(CC(=O)C4CC4)c3c2)c1 [Example 299, 2-[3-Chloro-6-(m-tolyl)pyrrolo[3,2-b]pyridin-1-yl]-1-cyclopropyl-ethanone]
7.70 | O=C(Cn1cc(Cl)c2ncc(-c3ccccc3)cc21)C1CC1 [Example 300, 2-(3-Chloro-6-phenyl-pyrrolo[3,2-b]pyridin-1-yl)-1-cyclopropyl-ethanone]
7.70 | O=C(Cn1cc(Cl)c2ncc(-c3cc(F)c(F)c(F)c3)cc21)N1CCC1 [Example 301, 1-(Azetidin-1-yl)-2-[3-chloro-6-(3,4,5-trifluorophenyl)pyrrolo[3,2-b]pyridin-1-yl]ethanone]
7.50 | O=C(Cn1cc(F)c2ncc(-c3ccc(F)cc3)cc21)N1CCC1 [Example 302, 1-(Azetidin-1-yl)-2-[3-fluoro-6-(4-fluorophenyl)pyrrolo[3,2-b]pyridin-1-yl]ethanone]
7.40 | Cc1cc(C)cc(-c2cnc3c(Cl)cn(CC(=O)N4CCC4)c3c2)c1 [Example 303, 1-(Azetidin-1-yl)-2-[3-chloro-6-(3,5-dimethylphenyl)pyrrolo[3,2-b]pyridin-1-yl]ethanone]
6.80 | Cc1cc(-c2cnc3c(F)cn(CC(=O)N4CCOCC4)c3c2)ccc1F [Example 304, 2-[3-Fluoro-6-(4-fluoro-3-methyl-phenyl)pyrrolo[3,2-b]pyridin-1-yl]-1-morpholino-ethanone]
7.10 | O=C(Cn1cc(F)c2ncc(-c3ccc(F)cc3)cc21)N1CCOCC1 [Example 305, 2-[3-Fluoro-6-(4-fluorophenyl)pyrrolo[3,2-b]pyridin-1-yl]-1-morpholino-ethanone]
6.40 | O=C(Cn1cc(F)c2ncc(-c3cc(F)c(F)c(F)c3)cc21)N1CC(F)C1 [Example 306, 1-(3-Fluoroazetidin-1-yl)-2-[3-fluoro-6-(3,4,5-trifluorophenyl)pyrrolo[3,2-b]pyridin-1-yl]ethanone]
7.40 | Cc1cc(-c2cnc3c(F)cn(CC(=O)N4CC(F)C4)c3c2)ccc1F [Example 307, 1-(3-Fluoroazetidin-1-yl)-2-[3-fluoro-6-(4-fluoro-3-methyl-phenyl)pyrrolo[3,2-b]pyridin-1-yl]ethanone]

Further lines, the molecule ahead of its results:

Compound | pIC50
O=C(Cn1ccc2ncc(-c3cccc(F)c3)cc21)N1CC(F)C1 [Example 263, 1-(3-Fluoroazetidin-1-yl)-2-[6-(3-fluorophenyl)pyrrolo[3,2-b]pyridin-1-yl]ethanone trifluoroacetate salt] | 6.80
Cc1cc(F)ccc1-c1cnc2ccn(CC(=O)N3CC(F)C3)c2c1 [Example 264, 1-(3-Fluoroazetidin-1-yl)-2-[6-(4-fluoro-2-methyl-phenyl)pyrrolo[3,2-b]pyridin-1-yl]ethanone trifluoroacetate salt] | 7.20
O=C(Cn1ccc2ncc(-c3cccc(C(F)(F)F)c3)cc21)N1CC(F)C1 [Example 265, 1-(3-Fluoroazetidin-1-yl)-2-[6-[3-(trifluoromethyl)phenyl]pyrrolo[3,2-b]pyridin-1-yl]ethanone trifluoroacetate salt] | 7.00
Cc1cccc(-c2cnc3ccn(CC(=O)N4CC(F)C4)c3c2)c1 [Example 266, 1-(3-Fluoroazetidin-1-yl)-2-[6-(m-tolyl)pyrrolo[3,2-b]pyridin-1-yl]ethanone trifluoroacetate salt] | 6.90
O=C(Cn1ccc2ncc(-c3cccc(C(F)(F)F)c3F)cc21)N1CC(F)C1 [Example 267, 1-(3-Fluoroazetidin-1-yl)-2-[6-[2-fluoro-3-(trifluoromethyl)phenyl]pyrrolo[3,2-b]pyridin-1-yl]ethanone trifluoroacetate salt] | 7.40
CCc1cccc(-c2cnc3ccn(CC(=O)N4CC(F)C4)c3c2)c1 [Example 268, 2-[6-(3-Ethylphenyl)pyrrolo[3,2-b]pyridin-1-yl]-1-(3-fluoroazetidin-1-yl)ethanone trifluoroacetate salt] | 7.10
Cc1cccc(-c2cnc3ccn(CC(=O)N4CC(F)(F)C4)c3c2)c1 [Example 269, 1-(3,3-Difluoroazetidin-1-yl)-2-[6-(m-tolyl)pyrrolo[3,2-b]pyridin-1-yl]ethanone] | 7.20
O=C(Cn1ccc2ncc(-c3ccccc3)cc21)N1CC(F)C1 [Example 270, 1-(3-Fluoroazetidin-1-yl)-2-(6-phenylpyrrolo[3,2-b]pyridin-1-yl)ethanone] | 7.40
Cc1c(F)ccc(-c2cnc3c(F)cn(CC(=O)N4CC(F)(F)C4)c3c2)c1F [Example 271, 1-(3,3-Difluoroazetidin-1-yl)-2-[6-(2,4-difluoro-3-methyl-phenyl)-3-fluoro-pyrrolo[3,2-b]pyridin-1-yl]ethanone] | 7.10
Cc1cc(-c2cnc3ccn(CC(=O)N4CC(O)C4)c3c2)ccc1F [Example 273, 2-[6-(4-Fluoro-3-methyl-phenyl)pyrrolo[3,2-b]pyridin-1-yl]-1-(3-hydroxyazetidine-1-yl)ethanone] | 6.00
CO/N=C(/Cn1ccc2ncc(-c3ccc(F)c(C)c3)cc21)C1CC1 [Example 276, 1-Cyclopropyl-2-[6-(4-fluoro-3-methyl-phenyl)pyrrolo[3,2-b]pyridin-1-yl]-N-methoxy-ethanimine] | 6.30
O=C(Cn1ccc2ncc(-c3cccs3)cc21)N1CC(F)C1 [Example 277, 1-(3-Fluoroazetidin-1-yl)-2-[6-(2-thienyl)pyrrolo[3,2-b]pyridin-1-yl]ethanone] | 5.50
O=C(Cn1ccc2ncc(-c3cccs3)cc21)N1CCCC1 [Example 278, 1-Pyrrolidin-1-yl-2-[6-(2-thienyl)pyrrolo[3,2-b]pyridin-1-yl]ethanone] | 6.60
Cc1ccc(-c2cnc3ccn(CC(=O)N4CC(F)(F)C4)c3c2)s1 [Example 279, 1-(3,3-Difluoroazetidin-1-yl)-2-[6-(5-methyl-2-thienyl)pyrrolo[3,2-b]pyridin-1-yl]ethanone] | 6.60
Cc1ccc(-c2cnc3ccn(CC(=O)N4CC(F)C4)c3c2)s1 [Example 280, 1-(3-Fluoroazetidin-1-yl)-2-[6-(5-methyl-2-thienyl)pyrrolo[3,2-b]pyridin-1-yl]ethanone] | 7.50
CCc1ccc(-c2cnc3ccn(CC(=O)N4CC(F)C4)c3c2)s1 [Example 281, 2-[6-(5-Ethyl-2-thienyl)pyrrolo[3,2-b]pyridin-1-yl]-1-(3-fluoroazetidin-1-yl)ethanone] | 7.70
CCc1ccc(-c2cnc3ccn(CC(=O)N4CCCC4)c3c2)s1 [Example 282, 2-[6-(5-Ethyl-2-thienyl)pyrrolo[3,2-b]pyridin-1-yl]-1-pyrrolidin-1-yl-ethanone] | 7.10
